This note sets out measurements from paper PMC11475281, “A Novel Liver Cancer-Selective Histone Deacetylase Inhibitor Is Effective against Hepatocellular Carcinoma and Induces Durable Responses with Immunotherapy” (ACS Pharmacology & Translational Science, 2024).

Read-outs that look alike come from different tables or passages of the source.

One test relates to Hep-G2 cells. In words: Immunoblotting of acetylated histone H4 and α-tubulin. The class given is cell-based, human. The conditions noted are these: for Acetylation status of histone H4 and α-tubulin: at 1/4 IC50 and 1/2 IC50. An excerpt: To determine the contributions of HDAC inhibition to the antiproliferative activities of the glycosylated HDACi compounds, immunoblotting was used to investigate the acetylation status of histone H4 and α-tubulin, biomarkers for HDAC class I and class IIb intracellular inhibition, respectively,[27] in Hep-G2 cells in response to exposure to representative compounds STR-V-53, STR-V-114, and STR-I-195. We used SAHA as a positive control for HDAC inhibition and GAPDH level as a protein loading control.
(§1) Figure 3 Effects of STR-V-53 on intracellular markers of HDAC inhibition, antitumor immune response, and apoptosis. (a) STR-V-53 upregulates the levels of acetylated H4 and tubulin in Hep-G2 cells. Hep-G2 cells were treated with DMSO or 0.1% DMSO solution of SAHA (1.25 μM) and STR-V-53 (1.25 μM, 2.5 μM). Cells were treated for 5 h before lysis. Data are from two independent experiments. (b) STR-V-53 upregulates PD-L1 and downregulates PD-1 expressions in Hep-G2 cells. Cells were treated with DMSO or 0.1% DMSO solution of SAHA (5 μM and 10 μM) and STR-V-53 (10 and 20 μM) for 24 h. (c) STR-V-53 and SAHA caused upregulation of the levels of CD54 in the Hep-G2 cell line. Cells were treated with DMSO or 0.1% DMSO solution of SAHA (5 and 10 μM) and STR-V-53 (5, 10, and 20 μM) for 24 h. […] Cells were treated with DMSO or 0.1% DMSO solution of SAHA (5 μM) and STR-V-53 (10 and 20 μM).
10-017-CV), supplemented with 10% fetal bovine serum (FBS) (Corning, 35-010-CV). Hep-G2 cells were cultured in phenol red-free Minimum Essential Medium (MEM) (Corning, 17-305-CV), supplemented with 10% fetal bovine serum (FBS). SK-Hep-1 in ATCC-formulated EMEM (ATCC® 30–2003™); Huh-7 in DMEM (containing 4 mM L-glutamine and 1 g/L glucose) with […]
Kupffer Cell Media (Sekisui XenoTech, LLC, Cat. #K8700). Cells were seeded into a 96-well plate (2000 counts/100uL) for 24 h prior to treatment and then treated with various drug concentrations for 72 h. All drugs were dissolved in media with DMSO concentration maintained at 1%. The effect of compounds on cell viability was measured using the MTS assay (CellTiter 96 Aqueous One Solution and CellTiter 96 Non-Radioactive Cell Proliferation Assays, Promega, Madison, WI) as described by the manufacturer. IC50s were determined using Prism GraphPad 8.
Western blot protocol was described in our previous works 24,25. In brief, Hep-G2 cells were seeded into a 6-well plate at 1*106/well in MEM for 24-48 h prior to treatment. Various concentrations of SAHA, STR-V-53, STR-V-114, and STR-I-195 solutions in DMSO were added to the cell culture such that the final DMSO level was 0.1%. Cells were treated for 24 h, washed with cold PBS, and lysed with RIPA buffer (120 µL) (VWR, VWRVN653 -100ML) containing phosphatase inhibitor (Fisher Thermo, A32957) and protease inhib itor (Fisher Thermo, A32955). The cell lysates were scraped, collected, and vortexed for 15 s, followed by sonication for 60 s. The lysate was centrifuged at 14000x rpm for 10 min, and the supernatants were collected. The total protein concentration was determined using a BCA protein assay kit (BioVision, K813-2500). Based on the results from the […], the lysates were diluted to make equal protein concentration, and 40 µg of each lysate was loaded to each wel l of the TGX […]
MIDI 4-20% gel (Biorad, cat. 5671093) and ran at 150 V for 70 min. […] After washing with TBS-T 3x5 mins, bands were quantified using the Odyssey CLx Image system. […]

The test system of a further test is VERO cells. In words: Immunoblotting of cleaved Caspase 3. The class given is cell-based. As to conditions: same concentrations as in Hep-G2. The method, then:
as §1

A further test concerns the target T1, HDAC8 (Homo sapiens, UniProt Q9BY41).
T1 sequence (Q9BY41 1-377): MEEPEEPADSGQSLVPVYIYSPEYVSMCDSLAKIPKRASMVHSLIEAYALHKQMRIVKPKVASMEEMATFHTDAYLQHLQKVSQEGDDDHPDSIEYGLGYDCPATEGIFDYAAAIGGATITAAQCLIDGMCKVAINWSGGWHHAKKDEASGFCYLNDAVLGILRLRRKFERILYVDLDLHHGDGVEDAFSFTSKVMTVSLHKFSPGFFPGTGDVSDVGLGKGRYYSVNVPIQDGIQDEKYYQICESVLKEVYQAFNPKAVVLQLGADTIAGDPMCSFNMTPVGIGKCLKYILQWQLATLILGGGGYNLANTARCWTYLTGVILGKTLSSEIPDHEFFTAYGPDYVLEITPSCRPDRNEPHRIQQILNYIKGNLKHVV
In words: HDAC isoform inhibition (BPS Bioscience).

Turning to `O=C(CCCCCCn1cc(-c2ccc(O[C@H]3O[C@H](CO)[C@@H](O)[C@H](O)[C@H]3O)cc2)nn1)NO` [STR-V-53], in the test on Hep-G2 cells, the “Acetylation status of histone H4 and α-tubulin” value is “induced accumulation of acetylated H4 and acetylated tubulin”. Also, the “Caspase 3 cleavage” value with VERO cells was “did not induce cleavage of Caspase 3”. This compound also had a half-maximal inhibitory concentration (IC50) at HDAC8 of 843 nM.

With `O=C(CCCCCCn1cc(-c2ccc3cc(O[C@H]4O[C@H](CO)[C@@H](O)[C@H](O)[C@H]4O)ccc3c2)nn1)NO` [STR-V-114], in the test on Hep-G2 cells, the “Acetylation status of histone H4 and α-tubulin” value was “induced accumulation of acetylated H4 and acetylated tubulin”. The IC50 on HDAC8 (read-out: HDAC8 IC50, Table S1) was determined as 2130 nM.

As to `O=C(CCCCCCC(=O)Nc1ccccc1)NO` [SAHA, vorinostat, reference compound], in the test with VERO cells, the “Caspase 3 cleavage” value is reported as “induced cleavage of Caspase 3”.

For the compound `O=C(CCCCCCn1cc(-c2ccc(O[C@@H]3O[C@H](CO)[C@@H](O)[C@H](O)[C@H]3O)cc2)nn1)NO` [STR-I-195], in the test on Hep-G2 cells (0.5 μM), the “Acetylation of H4 and α-Tubulin” value is “did not show significant acetylation”. Further, in the test with Hep-G2 cells (1.25 μM and 2.5 μM), the “Acetylation of H4” value is “mild acetylation” and the “Acetylation of α-Tubulin” value is on record as “significant acetylation”. The “Caspase 3 cleavage” value in the test with VERO cells was “did not induce cleavage of Caspase 3”. For the same compound, the IC50 at HDAC8 (read-out: HDAC8 IC50, Table S1) amounted to 464 nM.
